Results on 1 compound are retold here after US20240003908A1, “POLYOL BIOMARKERS FOR CONGENITAL DISORDERS OF GLYCOSYLATION” (Mayo Foundation for Medical Education and Research, priority 2020, published 2024).

What all share (format): in vivo, human
In one assay the test system is urine mannitol. The experiment in a line: Urine mannitol (GC/MS) in a PMM2-CDG pediatric patient on oral epalrestat therapy. As to conditions: for urine mannitol level: before therapy 648.6, controls <20. The protocol:
Clinical studies: Epalrestat was used as an N of 1 study for a single pediatric patient with PMM2-CDG. An open label, single patient compassionate use study designed to assess the safety and tolerability of oral epalrestat therapy in a child with PMM2-CDG. The patient received […]. Concomitant medications, vital signs, blood draw for serum chemistry and hematology, and blood levels of epalrestat were collected at each study visit during a 6 month period to evaluate the safety and tolerability of oral epalrestat therapy in a child with PMM2-CDG. The Nijmegen Pediatric CDG Rating Scale (NPCRS) assessment was administered at the start of the study and at 6 months. Urine polyols were collected at the start, at 4 months, and at 6 months of therapy, and were measured as described elsewhere (Jansen et al., Clin Chim Acta 1986, 157:277-294). Briefly, 200 μl urine specimens were spiked with a mixture of labeled internal standards, allowed to equilibrate, and evaporated. […] Specimens were analyzed by GC/MS, selected ion monitoring using ammonia chemical ionization and a stable isotope dilution method. In general, the following protocol was used: • Creatinine (CR) values (mg/dL) were determined for all samples. • Multiplication factors were calculated for each patient sample. • 100 μL of Polyol QC Mix for the QC Standard and 100 μL water were pipetted into a labeled 16×100 screw-cap glass tube. • 200 μL each of low control and high control were pipetted into corresponding labeled 16×100 mm screw-cap glass tubes. • 200 μL of each patient sample was pipetted into a corresponding labeled 16×100 mm screw cap glass tube. […]
Urine sorbitol and mannitol levels also were quantified using similar processing of samples and GC/MS settings, monitoring ions specific for sorbitol and mannitol for peak area ratio calculations.
Patient assessment: Prior to the first dose of epalrestat and at 1, 2, 3, 6, 8, 9, 12 months during treatment, concomitant medications and vital signs were recorded and the patient was evaluated using the NPCRS. […]

Assay [1] concerns blood transferrin glycosylation. The assay is described as follows: Blood transferrin glycoform ratio analysis by mass spectrometry in patient P1. To be noted: for A-oligo/Di-oligo: control ratio ≤ 0.01; for Mono-oligo/Di-oligo: control ratio ≤ 0.06. How it is done:
(§1) Patient assessment: Prior to the first dose of epalrestat and at 1, 2, 3, 6, 8, 9, 12 months during treatment, concomitant medications and vital signs were recorded and the patient was evaluated using the NPCRS. In addition, blood was drawn for serum chemistry, hematology, and plasma levels of epalrestat. Urine was collected for polyol measurement at baseline and twice over the course of 12 months of therapy.
(§2) Safety and efficacy: Safety measures included vital signs, change in CBC, liver function (INR, bilirubin, transaminases, and albumin) in blood, change in liver elastography, and following the pharmacokinetic profile of epalrestat. The efficacy of epalrestat was studied by clinical follow up (physical exam, NPCRS, ICARS), standard laboratory tests, and transferrin glycoform analysis by mass spectrometry.

Another assay concerns child with PMM2-CDG. The assay is described as follows: Single patient (P1) study: clinical efficacy (ICARS, NPCRS, BMI, weight). The protocol: Prospectively collected clinical and laboratory data in 24 PMM2-CDG patients: The genetic, laboratory, metabolic, and clinical data of 24 PMM2-CDG patients were evaluated (TABLES 2A and 2B). Disease severity was assessed by Nijmegen Pediatric CDG Rating Scale (NPCRS), (most severe=82; mild (0-14), moderate (15-25), severe (>26)) (Achouitar et al., J Inherit Metab Dis 34:923-927, 2011; and Martinez-Monseny et al., Ann Neurol 85:740-751, 2019). Patient P1 and twin patients P4 and P5 also were discussed elsewhere (Qian et al., JIMD Rep 56:27-33, 2020; and Jaeken et al., Ped Res 14:179, 1980). P1, enrolled in a single IND clinical trial, was additionally evaluated by the International cooperative ataxia rating scale (ICARS) (Trouillas et al., J Neurol Sci 145:205-211, 1997), which assesses limb ataxia, dysarthria, posture and gait disturbances, and oculomotor disorders (0=normal; 100=most severe). Urinary polyols including sorbitol and mannitol were analyzed by GC/MS in 23 out of the 24 PMM2-CDG patients (patient P6 was deceased). In addition, functional in vitro data was collected from the fibroblasts of P1-P6, P8, P10, P17, P19, and P24.
Study design: An open label, single patient (P1) compassionate use study was designed to assess the safety and tolerability of oral epalrestat therapy in a child with PMM2-CDG.
as §1
Drug administration: Epalrestat was administered orally, 3 times per day (TID) before meals in a divided dose (0.8 mg/kg/day; 5 mg TID) of epalrestat (Ono Pharmaceuticals, Osaka, Japan) starting on Day 1 of the study.
as §2

For `CC(/C=C1\SC(=S)N(CC(=O)O)C1=O)=C\c1ccccc1` [epalrestat], the results for the urine mannitol level in the assay on urine mannitol (6 months of epalrestat therapy) and in the assay on urine mannitol (after 3 months of epalrestat therapy) were 25.09 mmol/mol creatinine and 37.32 mmol/mol creatinine, respectively. Further, in the assay on urine mannitol (at 4 months of epalrestat treatment, pretreatment 648.6, control less than 10), the urinary mannitol level was 37.32 mmol/mol creatinine. The A-oligo/Di-oligo is reported as 0.005 in assay [1] (patient P1, 1st month of epalrestat, prior to first dose 0.005); 0.01 in assay [1] (patient P1, 2nd month); 0.004 in assay [1] (patient P1, 3rd month); 0.003 in assay [1] (patient P1, 6th month); 0.004 in assay [1] (patient P1, 8th month); 0.004 in assay [1] (patient P1, 9th month). In assay [1] (patient P1, 12th month), the A-oligo/Di-oligo stood at 0.004. For the same compound, the Mono-oligo/Di-oligo in assay [1] (patient P1, 1st month of epalrestat, prior to first dose 0.09) was found to be 0.14; in assay [1] (patient P1, 2nd month), 0.07; in assay [1] (patient P1, 3rd month), 0.08; in assay [1] (patient P1, 6th month), 0.06; in assay [1] (patient P1, 8th month) it was 0.06; in assay [1] (patient P1, 12th month, after dose correction), 0.06. The “body mass index (BMI)” value in the assay on child with PMM2-CDG (patient P1, 12-month-follow-up, previous trough 14.8 (30th percentile)) stood at 18.5. In addition, the ICARS score with child with PMM2-CDG (patient P1, epalrestat 0.8 mg/kg/day, within 12 months, from a score of 56) was 42. The NPCRS score with child with PMM2-CDG (patient P1, months 6, 9, and 12, baseline 21-24) is listed as 20-21.
